The IC50 is the concentration that gives 50% inhibition.

In this assay the test system is TDP-43 aggregation in PC12 cells stably expressing TDP-43^Q331K::eGFP. Description: In vitro efficacy assay, TDP-43 aggregation concentration-response. It is filed as cell-based. The settings on record: PC12 TDP-43^Q331K::eGFP, 1 hour pre-treatment, 15 μM sodium arsenite for 23 hours, 10-point dose response. As for the experimental part:
Exemplary compounds of the invention were evaluated for efficacy in inhibiting TDP-43 inclusions using a concentration-response assay. Briefly, PC12 cells stably expressing a GFP-tagged mutant form of TDP-43 (TDP-43^Q331K::eGFP) were pre-treated for 1 hour with exemplary compounds and stressed with 15 μM sodium arsenite for 23 hours to induce TDP-43 aggregation. The inhibitory effect on TDP-43 aggregation was measured using fluorescence microscopy. The ratio of cells with TDP-43 aggregates was calculated based on the total number of cells with detectable GFP expression.

Where [1] appears, read: Rattus norvegicus, PC-12, inhibition of TDP-43 aggregation.
Where [2] appears, read: inhibition of TDP-43 aggregation.

Regarding `CCN(CC1CCN(C2CCc3ccccc3C2)CC1)C(=O)c1cc2ccccc2[nH]1` (stereo not drawn) [Compound 211], the half-maximal inhibitory concentration (IC50) under setting [1] lay within 1.5 to 4 µM.
As to `CCN(CC1CCCN(Cc2ccc(C(=O)OC)cc2)C1)C(=O)c1cc2ccccc2[nH]1` (stereo not drawn) [Compound 212], the half-maximal inhibitory concentration (IC50) under setting [1] was over 10 µM.
`CCN(CC1CCCN(Cc2ccc(C(=O)O)cc2)C1)C(=O)c1cc2ccccc2[nH]1` (stereo not drawn) [Compound 213]: under setting [1], the half-maximal inhibitory concentration (IC50) was over 10 µM.
With `CCN(CC1CCCN(CCc2ccccc2)C1)C(=O)c1cc2ccccc2[nH]1` (stereo not drawn) [Compound 216], the IC50 under setting [1] is 1.5 to 4 µM.
As to `COc1cccc(CCN2CCCC(CN(C)C(=O)c3cc4ccccc4[nH]3)C2)c1` (stereo not drawn) [Compound 217], the half-inhibitory concentration (IC50) under setting [1] is under 1.5 µM.
On the same count and under the same terms, next, `COc1cccc(CCN2CCCC(CN(Cc3ccccc3)C(=O)c3cc4ccccc4[nH]3)C2)c1` (stereo not drawn) [Compound 218]: over 10 µM; `COc1cccc(CCN2CCCC(CN(C(=O)c3cc4ccccc4[nH]3)C3CCCCC3)C2)c1` (stereo not drawn) [Compound 219]: under 1.5 µM; `COc1cccc(CCN2CCCC(CN(CC3CCCCC3)C(=O)c3cc4ccccc4[nH]3)C2)c1` (stereo not drawn) [Compound 220]: over 10 µM.
Regarding `COc1cccc(CCNCCNC(=O)c2cc3ccccc3[nH]2)c1` [Compound 221], the IC50 under setting [1] fell in the range of 1.5 to 4 µM.
On the same count and under the same terms, next, `COc1cccc(CCN2CCCC(N(C)C(=O)c3cc4ccccc4[nH]3)C2)c1` (stereo not drawn) [Compound 222]: over 10 µM; `CCN(CC1CCN(CCc2cccc(OC)c2)C1)C(=O)c1cc2ccccc2[nH]1` (stereo not drawn) [Compound 223]: 1.5 to 4 µM; `CCN(CC1CCCCN1CCc1cccc(OC)c1)C(=O)c1cc2ccccc2[nH]1` (stereo not drawn) [Compound 224]: 1.5 to 4 µM.
Consider `CCN(CC1CCCN(Cc2ccc(-c3nnn[nH]3)cc2)C1)C(=O)c1cc2ccccc2[nH]1` (stereo not drawn) [Compound 225], for which, under setting [1], the half-inhibitory concentration (IC50) is over 10 µM.
For `CCN(CC1CCCN(c2ccc(OC)cc2)C1)C(=O)c1cc2ccccc2[nH]1` (stereo not drawn) [Compound 227], the IC50 under setting [1] lay in the range of 1.5 to 4 µM.
For the compound `CCN(CC1CCCN(c2cccc(OC)c2)C1)C(=O)c1cc2ccccc2[nH]1` (stereo not drawn) [Compound 228], the IC50 under setting [1] was over 10 µM.
As for `CCN(CC1CCCN(CCc2cccc(OC)c2)C1)C(=O)c1cc(C)c[nH]1` (stereo not drawn) [Compound 229], the IC50 under setting [1] lay within 1.5 to 4 µM.
The same measure, in the same setting: the value for `CCN(CC1CCCN(CCc2cccc(OC)c2)C1)C(=O)c1nc2ccccc2[nH]1` (stereo not drawn) [Compound 230] was under 1.5 µM.
With `CCN(CC1CCCN(CCc2cccc(OC)c2)C1)C(=O)c1ccc[nH]1` (stereo not drawn) [Compound 231], under setting [1], the IC50 lay within 1.5 to 4 µM.
The same measure, in the same setting: next, `CCN(CC1CCCN(CCc2cccc(OC)c2)C1)C(=O)c1c[nH]c2ccccc12` (stereo not drawn) [Compound 232]: under 1.5 µM; `CCN(CC1CCCN(CCc2cccc(OC)c2)C1)C(=O)c1coc2ccccc12` (stereo not drawn) [Compound 233]: under 1.5 µM.
In the case of `CCN(CC1CCCN(CCc2cccc(OC)c2)C1)C(=O)c1ccccc1` (stereo not drawn) [Compound 234], the IC50 under setting [1] is over 10 µM.
Regarding `CCN(CC1CCCN(CCc2cccc(OC)c2)C1)C(=O)c1cc2ccccc2s1` (stereo not drawn) [Compound 235], under setting [1], the IC50 lay in the range of 1.5 to 4 µM.
As for `CCN(CC1CCCN(CCc2cccc(OC)c2)C1)C(=O)c1ccccn1` (stereo not drawn) [Compound 236], under setting [1], the IC50 was over 10 µM.
As for `CCN(CC1CCCN(CCc2cccc(OC)c2)C1)C(=O)c1ccc2ccccc2c1` (stereo not drawn) [Compound 237], the IC50 under setting [1] is 1.5 to 4 µM.
As for `CCN(CC1CCCN(CCc2cccc(OC)c2)C1)C(=O)c1cc2ccccc2n1CC` (stereo not drawn) [Compound 238], the IC50 under setting [1] was 1.5 to 4 µM.
Still for that read-out and setting: the value for `CCN(CC1CCCN(CCc2cccc(OC)c2)C1)C(=O)C1Cc2ccccc2N1C` (stereo not drawn) [Compound 239] was over 10 µM; that for `CCN(CC1CCCN(CCc2cccc(OC)c2)C1)C(=O)c1nc2ccccc2n1C` (stereo not drawn) [Compound 240] was over 10 µM.
`CCN(CC1CCCN(CCc2cccc(OC)c2)C1)C(=O)c1nc2ccccc2o1` (stereo not drawn) [Compound 241]: under setting [1], the IC50 is over 10 µM.
As for `CCN(CC1CCCN(CCc2cccc(OC)c2)C1)C(=O)c1cc(C#N)c[nH]1` (stereo not drawn) [Compound 242], under setting [1], the IC50 lay in the range of 1.5 to 4 µM.
Same read-out and setting: next, `CCN(CC1CCCN(CCc2cccc(OC)c2)C1)C(=O)c1cc2c([nH]1)CCCC2` (stereo not drawn) [Compound 243]: under 1.5 µM; `CCN(CC1CCCN(CCc2cccc(OC)c2)C1)C(=O)c1cc2cc(OC)ccc2[nH]1` (stereo not drawn) [Compound 244]: over 10 µM; `CCN(CC1CCCN(CCc2cccc(OC)c2)C1)C(=O)c1ccc(C)[nH]1` (stereo not drawn) [Compound 246]: 1.5 to 4 µM.
Regarding `CCN(CC1CCCN(CCc2cccc(OC)c2)C1)C(=O)c1ccco1` (stereo not drawn) [Compound 247], the IC50 under setting [1] lay in the range of 4 to 7 µM.
On to `CCN(CC1CCCN(CCc2cccc(OC)c2)C1)C(=O)c1cn(C)c2ccccc12` (stereo not drawn) [Compound 248], for which the half-maximal inhibitory concentration (IC50) under setting [1] was under 1.5 µM.
In the case of `CCN(CC1CCCN(CCc2cccc(OC)c2)C1)C(=O)c1n[nH]c2ccccc12` (stereo not drawn) [Compound 249], under setting [1], the half-inhibitory concentration (IC50) was under 1.5 µM.
Take `CCN(CC1CCNCC1)C(=O)c1cc2ccccc2[nH]1` [Compound 250]: the IC50 under setting [1] is under 1.5 µM.
Consider `CCN(CC1CCN(Cc2cccc(F)c2)CC1)C(=O)c1cc2ccccc2[nH]1` [Compound 252], for which the IC50 under setting [1] is over 10 µM.
As to `O=C(NCC1CCNCC1)c1cc2ccccc2[nH]1` [Compound 264], the IC50 under setting [1] lay within 1.5 to 4 µM.
Take `COc1ccc(C(=O)N2CCC(CNC(=O)c3cc4ccccc4[nH]3)CC2)cc1` [Compound 321]: under setting [1], the IC50 is under 1.5 µM.
On the same count and under the same terms, next, `COc1cccc(CC(=O)N2CCC(CNC(=O)c3cc4ccccc4[nH]3)CC2)c1` [Compound 322]: 1.5 to 4 µM; `COc1ccc(CC(=O)N2CCC(CNC(=O)c3cc4ccccc4[nH]3)CC2)cc1` [Compound 323]: under 1.5 µM; `COc1ccc(S(=O)(=O)N2CCC(CNC(=O)c3cc4ccccc4[nH]3)CC2)cc1` [Compound 325]: over 10 µM.
Consider `CCN(CC1CCN(Cc2cc3ccccc3o2)CC1)C(=O)c1cc2ccccc2[nH]1` [Compound 327], for which, under setting [1], the IC50 is 7 to 9.9 µM.
Same read-out and setting: the value for `CCN(CC1CCN(C2CCc3ccccc32)CC1)C(=O)c1cc2ccccc2[nH]1` (stereo not drawn) [Compound 328] was 4 to 7 µM.
With `CCN(CC1CCN(C2CCc3ccc(OC)cc3C2)CC1)C(=O)c1cc2ccccc2[nH]1` (stereo not drawn) [Compound 329], the IC50 under setting [1] is under 1.5 µM.
In the case of `CCN(CC1CCN(C(C)(C)Cc2cccc(F)c2)CC1)C(=O)c1cc2ccccc2[nH]1` [Compound 330], the IC50 under setting [1] was under 1.5 µM.
`CCN(CC1CCCN(C(C)(C)Cc2cccc(OC)c2)C1)C(=O)c1cc2ccccc2[nH]1` (stereo not drawn) [Compound 331]: under setting [2], the concentration for half-maximal inhibition (IC50) fell in the range of 1.5 to 4 µM.
With `CCN(CC1CCN(C(C)(C)Cc2cccc(OC)c2)CC1)C(=O)c1cc2ccccc2[nH]1` [Compound 332], the IC50 under setting [1] is under 1.5 µM.
For `CCN(CC1CCN(C(C)(C)Cc2ccccc2)CC1)C(=O)c1cc2ccccc2[nH]1` [Compound 333], under setting [1], the IC50 is over 10 µM.
As for `CCN(CC1CCCN(C(C)(C)Cc2cccc(OC)c2)C1)C(=O)c1cc2cc(OC)ccc2[nH]1` (stereo not drawn) [Compound 334], the IC50 under setting [2] was under 1.5 µM.
In the case of `CCN(CC1CCCN(C(C)(C)Cc2cccc(Cl)c2)C1)C(=O)c1cc2ccccc2[nH]1` (stereo not drawn) [Compound 335], the IC50 under setting [2] was under 1.5 µM.
Take `CCN(CC1CCCN(C(C)(C)Cc2cccc(OC(F)F)c2)C1)C(=O)c1cc2cc(OC(F)F)ccc2[nH]1` (stereo not drawn) [Compound 336]: the IC50 under setting [2] was under 1.5 µM.
`CCN(CC1CCCN(C(C)(C)Cc2cccc(OC(F)(F)F)c2)C1)C(=O)c1cc2cc(OC(F)(F)F)ccc2[nH]1` (stereo not drawn) [Compound 337]: under setting [2], the IC50 was under 1.5 µM.
On the same count and under the same terms, next, `CCN(CC1CCCN(C(C)(C)c2cc3ccccc3o2)C1)C(=O)c1cc2ccccc2[nH]1` (stereo not drawn) [Compound 338]: under 1.5 µM.
On to `CCN(CC1CCN(C(C)(C)Cc2cc3ccccc3o2)CC1)C(=O)c1cc2ccccc2[nH]1` [Compound 339], for which, under setting [1], the concentration for half-maximal inhibition (IC50) was under 1.5 µM.
`CCN(CC1CCN(C(C)(C)c2cc3ccccc3o2)CC1)C(=O)c1cc2ccccc2[nH]1` [Compound 340]: under setting [1], the IC50 is under 1.5 µM.
As to `CCN(CC1CCN(C(C)(C)Cc2ccc(Cl)cc2)CC1)C(=O)c1cc2ccccc2[nH]1` [Compound 341], the IC50 under setting [1] is under 1.5 µM.
Consider `CCN(CC1CCN(C(C)(C)Cc2cccc(F)c2F)CC1)C(=O)c1cc2ccccc2[nH]1` [Compound 342], for which the IC50 under setting [1] was over 10 µM.
Consider `CCN(CC1CCN(C(C)(C)Cc2ccccc2F)CC1)C(=O)c1cc2ccccc2[nH]1` [Compound 343], for which the concentration for half-maximal inhibition (IC50) under setting [1] was in the range of 1.5 to 4 µM.
In the case of `CCN(CC1CCN(C(C)(C)Cc2ccc(OC)cc2)CC1)C(=O)c1cc2ccccc2[nH]1` [Compound 344], under setting [1], the IC50 is over 10 µM.
For `CCN(CC1CCN(C(C)(C)Cc2ccc(F)cc2)CC1)C(=O)c1cc2ccccc2[nH]1` [Compound 345], the IC50 under setting [1] was 1.5 to 4 µM.
In the case of `COc1cccc(CC(C)(C)N2CCC(CN(CC(F)(F)F)C(=O)c3cc4ccccc4[nH]3)CC2)c1` [Compound 350], the IC50 under setting [1] was under 1.5 µM.
`CC(C)(Cc1ccccc1)N1CCCC(CN(CC(F)(F)F)C(=O)c2cc3ccccc3[nH]2)C1` (stereo not drawn) [Compound 351]: under setting [1], the IC50 is under 1.5 µM.
Consider `CC(C)(Cc1cccc(F)c1)N1CCCC(CN(CC(F)(F)F)C(=O)c2cc3ccccc3[nH]2)C1` (stereo not drawn) [Compound 352], for which the IC50 under setting [1] was under 1.5 µM.
For the compound `CC(C)(Cc1cccc(F)c1)N1CCC(CN(CC(F)(F)F)C(=O)c2cc3ccccc3[nH]2)CC1` [Compound 353], the concentration for half-maximal inhibition (IC50) under setting [1] is under 1.5 µM.
For `CC(C)(Cc1ccccc1)N1CCC(CN(CC(F)(F)F)C(=O)c2cc3ccccc3[nH]2)CC1` [Compound 354], the IC50 under setting [1] is under 1.5 µM.
Turning to `CCN(CC1CCCN(C(C)(C)c2ccc(OC)cc2)C1)C(=O)c1cc2ccccc2[nH]1` (stereo not drawn) [Compound 355], the IC50 under setting [1] was under 1.5 µM.
The same measure, in the same setting: next, `CCN(CC1CCCN(C(C)(C)c2ccc(OC)cc2)C1)C(=O)c1cc2cc(OC)ccc2[nH]1` (stereo not drawn) [Compound 356]: under 1.5 µM.
For `CCN(CC1CCCN(C(C)(C)c2ccc(OC)cc2)C1)C(=O)c1cc2cc(Cl)ccc2[nH]1` (stereo not drawn) [Compound 357], the IC50 under setting [1] was under 1.5 µM.

These data come from patent US20180305334A1, “COMPOUNDS, COMPOSITIONS AND METHODS OF USE AGAINST STRESS GRANULES” (Aquinnah Pharmaceuticals, Inc., priority 2015, published 2018).
